Assays:
hippocampal (CA1) unit = assay: Acute tetrode recording with local micro-injection through MiNDS in anesthetized rats; type: in vivo; settings: anesthetized rat
Protocol: Acute electrophysiological recordings and micro-injections were performed in anesthetized rats to test the system with a tetrode W electrode. […] The channel impedance values of the tetrode electrode (T-1, T-2, T-3, T-4) were 430, 370, 440, and 370 kΩ. […] The mean of the action potentials recorded from this unit was stable during the experiment (i.e. before first saline infusion, before first and second muscimol infusions), confirming that the unit was present during the trial, as shown in FIGS. 18A-C. […] Peak 1 and Peak 2 are the maximal value of waveforms measured by T-1, T-2, respectively. The projections of the peak values calculated from each recorded action potential are shown in FIG. 18C, reflecting the cluster-cutting used to isolate signals coming from different neurons. […]
The dura was removed and the device was lowered into the brain to a depth of 2.5 mm and a location with unit activity was identified. The local neural signals were recorded with Open Ephys GUI software. Prior to drug infusion, the local signals were recorded for 30 mins to ensure stable spikes were located. After the baseline recording, 150 nl of saline were infused into the site at a flow rate of 100 nl/min and the activity was recorded for another 30 mins. […] Recording was recorded for another 30 mins post muscimol infusion. […]

substantia nigra (SN) = assay: Behavioral study: rotations after unilateral infusion into the substantia nigra through S-MiNDS with iPrecio pumps; type: in vivo; settings: rat
Protocol: The capability of interfacing the system with deep brain structures to remotely control behavior was tested. In experiments in rats, the S-MiNDS was implanted in the SN and was connected to two implanted iPrecio pumps, containing either saline or muscimol. Unilateral delivery of muscimol to the SN is known to evoke preferential ipsilateral rotation, reflecting a hemiparkinsonian state. […] These studies were performed multiple times on each of multiple animals. This illustrates the ability of system to repeatedly and reproducibly deliver small volumes of drug to effect a reversible behavioral change.
A similar protocol as described above was used to implant the MiNDS with the iPrecio pumps. Rats were anesthetized, and their heads were shaved and disinfected. A longer incision was made to accommodate the insertion of the pumps. As aforementioned, the MiNDS burr hole was made 5 mm posterior to the bregma and 2.5 mm lateral to the midline, and a support screw burr hole was made 3 mm posterior and 2 mm lateral to the bregma, on the opposite side. The screw was implanted, such that 1 mm protruded beneath the skull. A subcutaneous cavity for the pump was made by blunt dissection, and the pump was inserted through the incision. The MiNDS probe was implanted and cemented to the skull using C&B Metabond adhesive (Parkell Inc., Edgewood N.Y.) and Orthojet dental cement (Lange Dental, Wheeling, Ill. USA), and the incision was closed using 5-0 monofilament non-resorbable suture and 3M tissue glue. Animals were closely observed during the recovery period and given analgesics and wet food. By 1 week post-surgery, in all cases animals were ambulatory and otherwise healthy. Animals implanted with pumps were used for the behavioral studies described below. […]
A rat was implanted with the MiNDS and two pumps pre-loaded and flushed with either saline or muscimol, as described above. The animal was placed within the dish and recorded over the course of 5 hrs. […]
Videos were imported into Ethovision, where they were analyzed for ipsilateral and contralateral rotations over time. […]

[1] = tested on: local neuronal activity in the neocortex; assay: Unit firing and local field potential recording with serial infusions through L-MiNDS in awake head-fixed monkey; type: in vivo, rhesus macaque (Macaca mulatta); settings: for rate of detected spike activity (local unit firing): muscimol 2 mg/ml in aCSF, 500 nl at 100 nl/min for 5 mins
Protocol: The functionality of the system (specifically, the L-MiNDS) was confirmed in a large, awake behaving animal model, the rhesus macaque (macacca mulatta) monkey. The L-MiNDS was used to modulate and monitor local neuronal activity in the neocortex of a head-fixed monkey through serial infusions of aCSF and muscimol, which respectively preserve and inhibit baseline unit firing activity, as depicted in FIG. 21A. The 1st vertical line on left indicates the start of aCSF infusion (at 20 mins) and the 2nd vertical line denotes the muscimol infusion (at 63.7 mins). The impedance measurement of the W-electrode was 1.5 MΩ in brain and at pre-implantation in saline was 2 MΩ. Modulation of neuronal firing activity was monitored by recording signals at the MiNDS electrode adjoining the infusion ports. […] Then, aCSF was infused for 5 mins 20 s at an infusion rate of 100 nl/min. This control infusion had minimal effect on the local firing rate and unit waveform during and after the infusion. Muscimol was then infused at the same location for 5 mins at infusion rate of 100 nl/min. […] Vertical and horizontal bars denote 10 μV and 2 ms, respectively.
A second experiment was conducted targeting deeper layers of the neocortical region (i.e., dorsal bank of the cingulate cortex) to determine if recovery of the reduced neural activity through an additional infusion of aCSF could be induced at this adjoining site. This larger infusion of aCSF was indeed effective in reversing the inhibitory effect of muscimol, as shown by the observation of an increasing frequency of spikes with waveforms closely resembling those found during the pre-muscimol period, as depicted in FIGS. 23A-23C. In particular, the 1st vertical line on left in FIG. 23A denotes the start of aCSF infusion (at 20 mins), the second vertical line represents the start of muscimol infusion (at 43 mins), and the third vertical line denotes the start of aCSF infusion (at 92 mins). In FIG. 23Cm vertical and horizontal bars denote 10 μV and 2 ms, respectively. […] Compared to prior work, this is the first system that allows serial infusion of multiple distinct solutions to be delivered in a focal, independent manner in a NHP. The system's integrated electrode can also be used to record local field potentials (LFPs), as shown in FIGS. 24A and 24B, which may be important for clinical applications that may require chronic recording from a fixed brain location. For example, pathological beta-band LFP in Parkinson's disease and/or epileptic discharges in epilepsy could be recorded from the chronically integrated electrode to track and treat dysfunction in future applications. In FIG. 24A, two curves for each period represent 95% confidence intervals. Each pair of curves correspond to signals averaged over 10 mins periods as labeled in the legend at the top right of each plot. […] Alpha (5-11 Hz) and beta (11-30 Hz) band power fluctuate without correlation to the infusions. The prominent power at 60 Hz is due to coupling of power mains noise. […]
Solutions used for infusion through the MiNDS were aCSF (artificial cerebrospinal fluid, Tocris Biosciences) and muscimol (2 mg/ml in aCSF, Sigma-Aldrich). The MiNDS and guide cannula were sonicated in a detergent solution (Alconox, Inc.), rinsed with water, and then sonicated and soaked in 70% ethanol followed by water until they were ready for implantation. […]

[2] = 1.67 μl of muscimol (0.2 mg/ml) into SN, 180° turns

With `NCc1cc(=O)[nH]o1` [muscimol] the “firing rate of hippocampal (CA1) unit after first muscimol injection” value (hippocampal (CA1) unit; local infusion via iPrecio pump, first muscimol infusion at 60 mins) was “a slow decrease of the firing rate occurred”, the “rate of detected spike activity of hippocampal (CA1) unit after second muscimol injection” value (hippocampal (CA1) unit; second muscimol infusion at 90 mins) was “abolished the rate of detected spike activity” and the counter-clockwise rotations (substantia nigra (SN); [2]) was “remained the same”. The “increase in the number of clockwise rotations” value (substantia nigra (SN); [2]) was 52 fold, the “parkinsonian behavior (preferential ipsilateral rotation)” value (substantia nigra (SN); remotely controlled infusion of 1.67 μl of muscimol (0.2 mg/ml) into SN) was “reliably induced” and the “LFP power for alpha frequencies” value ([1]; after muscimol infusion) was “persists”. For the same compound, the “LFP power for broadband, beta, and gamma frequency ranges” value ([1]; after muscimol infusion) was “decreases significantly”, the “LFP broadband power from 30-100 Hz” value ([1]; after muscimol infusion, 10 mins intervals) was “decreases immediately following muscimol infusion” and the “rate of detected spike activity (local unit firing)” value [1] was “immediately suspended activity”. For the same compound, the “rate of detected spike activity (local unit firing)” value ([1]; listed as Muscimol) was “immediately decreased the rate of detected spike activity”.

From patent US20180264191A1, “SYSTEMS AND METHODS FOR NEURAL DRUG DELIVERY AND MODULATION OF BRAIN ACTIVITY” (priority 2017, published 2018)
